Experimental data reported in ChEMBL document CHEMBL3352667, “Anti-tumor activity of novel biisoquinoline derivatives against breast cancers” (Bioorg Med Chem Lett, 2014).
Activity calls are given as the source filed them. The rule behind the calls is not given here.

Experiments:
Type in all cases: functional, cell-based
[1] = tested on: MDA-MB-468; assay: Cytotoxicity against human MDA-MB-468 cells assessed as growth inhibition after 48 hrs by methylene blue staining-based assay; settings: MDA-MB-468, 48 h
[2] = tested on: T47D; assay: Cytotoxicity against human T47D cells assessed as growth inhibition after 48 hrs by methylene blue staining-based assay
[3] = tested on: MCF7; assay: Cytotoxicity against human MCF7 cells assessed as growth inhibition after 48 hrs by methylene blue staining-based assay; settings: MCF7, 48 h
[4] = tested on: BT-474; assay: Cytotoxicity against human BT474 cells assessed as growth inhibition after 48 hrs by methylene blue staining-based assay; settings: BT-474, 48 h
[5] = tested on: MDA-MB-231; assay: Cytotoxicity against human MDA-MB-231 cells assessed as growth inhibition after 48 hrs by methylene blue staining-based assay; settings: for IC50: MDA-MB-231, 48 h

| Structure (SMILES) | IC50 [1] | IC50 [2] | IC50 [3] | IC50 [4] | IC50 [5] | Activity [5] |
| --- | --- | --- | --- | --- | --- | --- |
| COc1cc2c(cc1OC)-c1c3[n+](cn1CC2)CCc1cc(OC)c(OC)cc1-3 | 2.6 µM | 34 µM | 35 µM | 3.1 µM | 19 µM | – |
| COc1ccc2c(c1)CCn1c[n+]3c(c1-2)-c1ccc(OC)cc1CC3 | 1.8 µM | 1 µM | 1.3 µM | 0.3 µM | 3.9 µM | – |
| COc1cc2c(cc1OC)C(C1=NCCc3cc(OC)c(OC)cc31)=NCC2 | – | – | – | – | – | inactive |
| COc1ccc2c(c1OC)CCn1c[n+]3c(c1-2)-c1ccc(OC)c(OC)c1CC3 | 2.1 µM | 13.5 µM | 7.9 µM | 0.7 µM | 18.2 µM | – |
| COc1ccc(CCNC(=O)C(=O)NCCc2ccc(OC)c(OC)c2)cc1OC | – | – | – | – | 45 µM | – |
| COc1cc2c(c(OC)c1OC)CCn1c[n+]3c(c1-2)-c1cc(OC)c(OC)c(OC)c1CC3 | – | – | – | – | – | inactive |
| COc1ccc2c(c1OC)C(=O)O[C@@H]2[C@H]1c2c(cc3c(c2OC)OCO3)CCN1C [NOSCAPINE] | – | – | 57 µM | – | 64 µM | – |
